Test results: the kinase profiling compilation of Christmann-Franck et al. (2016)
Where “and” joins values, the source holds several entries; their conditions need not be identical. Equal values may be shown once.

Tests used:
Test in all cases: radiometric filter-binding kinase assay
Details in all cases: compound 1.0 µM
[1] = biological target: JAK2 JH1 JH2 (human) (UniProt O60674)
[2] = biological target: IRAK4 (human) (UniProt Q9NWZ3)
[3] = biological target: MARK1 (human) (UniProt Q9P0L2)
[4] = biological target: ERBB4 (human) (UniProt Q15303)
[5] = biological target: MAP3K11 (human) (UniProt Q16584)
[6] = biological target: MAP3K1 (human) (UniProt Q13233)
[7] = biological target: HIPK3 (human) (UniProt Q9H422)
[8] = biological target: EPHB4 (human) (UniProt P54760)
[9] = biological target: BTK (human) (UniProt Q06187)
[10] = biological target: MAP3K5 (human) (UniProt Q99683)
[11] = biological target: CLK2 (human) (UniProt P49760)
CLK2 (human), sequence (P49760 whole entry, looked up): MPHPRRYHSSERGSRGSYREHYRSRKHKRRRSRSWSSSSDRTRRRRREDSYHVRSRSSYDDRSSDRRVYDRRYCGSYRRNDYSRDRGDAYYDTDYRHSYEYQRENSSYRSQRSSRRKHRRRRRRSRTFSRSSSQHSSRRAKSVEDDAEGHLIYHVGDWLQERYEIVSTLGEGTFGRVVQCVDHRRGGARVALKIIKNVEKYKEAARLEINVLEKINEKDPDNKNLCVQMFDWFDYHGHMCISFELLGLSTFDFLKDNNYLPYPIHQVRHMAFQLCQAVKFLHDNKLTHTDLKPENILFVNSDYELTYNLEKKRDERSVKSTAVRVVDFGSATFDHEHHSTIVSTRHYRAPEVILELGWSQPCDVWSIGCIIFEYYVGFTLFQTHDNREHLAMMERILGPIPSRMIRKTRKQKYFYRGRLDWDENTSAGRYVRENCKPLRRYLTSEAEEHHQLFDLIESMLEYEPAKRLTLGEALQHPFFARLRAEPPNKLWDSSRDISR

[12] = biological target: MAP3K9 (human) (UniProt P80192)
[13] = biological target: AURKA (human) (UniProt O14965)
[14] = biological target: RIPK2 (human) (UniProt O43353)
[15] = biological target: BRSK1 (human) (UniProt Q8TDC3)
[16] = biological target: PTK6 (human) (UniProt Q13882)
[17] = biological target: TEK (human) (UniProt Q02763)
[18] = test system: PAK2 (human), Q13177 [T402E]
[19] = biological target: ABL1 (human) (UniProt P00519)
[20] = biological target: EPHB1 (human) (UniProt P54762)
EPHB1 (human), sequence (P54762 whole entry, looked up): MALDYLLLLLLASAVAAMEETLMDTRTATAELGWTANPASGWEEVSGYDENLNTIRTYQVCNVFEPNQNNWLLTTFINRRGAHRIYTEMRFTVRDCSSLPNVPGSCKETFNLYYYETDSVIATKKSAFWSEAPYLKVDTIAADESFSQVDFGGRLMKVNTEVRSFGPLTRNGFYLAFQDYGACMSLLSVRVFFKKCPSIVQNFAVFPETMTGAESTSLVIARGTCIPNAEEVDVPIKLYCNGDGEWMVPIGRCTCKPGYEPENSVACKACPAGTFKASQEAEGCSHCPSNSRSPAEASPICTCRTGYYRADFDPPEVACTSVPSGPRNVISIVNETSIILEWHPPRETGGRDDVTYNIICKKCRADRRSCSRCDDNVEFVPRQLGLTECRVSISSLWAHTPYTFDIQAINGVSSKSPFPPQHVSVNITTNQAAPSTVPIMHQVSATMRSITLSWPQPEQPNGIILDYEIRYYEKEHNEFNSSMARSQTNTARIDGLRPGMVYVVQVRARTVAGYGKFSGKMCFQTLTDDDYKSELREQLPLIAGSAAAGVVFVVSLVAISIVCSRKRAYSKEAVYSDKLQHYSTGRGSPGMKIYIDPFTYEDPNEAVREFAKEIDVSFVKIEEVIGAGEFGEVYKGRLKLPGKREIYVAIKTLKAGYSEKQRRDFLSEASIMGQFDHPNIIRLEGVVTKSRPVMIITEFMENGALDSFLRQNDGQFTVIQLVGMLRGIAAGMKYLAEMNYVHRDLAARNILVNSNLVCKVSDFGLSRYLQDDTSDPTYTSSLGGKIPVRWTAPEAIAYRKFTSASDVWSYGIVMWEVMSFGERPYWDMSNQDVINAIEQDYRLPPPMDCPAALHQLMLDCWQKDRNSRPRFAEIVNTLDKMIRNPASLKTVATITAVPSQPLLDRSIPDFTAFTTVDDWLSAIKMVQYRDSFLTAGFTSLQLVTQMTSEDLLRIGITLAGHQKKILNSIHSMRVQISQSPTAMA

[21] = biological target: DYRK1A (human) (UniProt Q13627)
[22] = biological target: EPHB3 (human) (UniProt P54753)
EPHB3 (human), sequence (P54753 whole entry, looked up): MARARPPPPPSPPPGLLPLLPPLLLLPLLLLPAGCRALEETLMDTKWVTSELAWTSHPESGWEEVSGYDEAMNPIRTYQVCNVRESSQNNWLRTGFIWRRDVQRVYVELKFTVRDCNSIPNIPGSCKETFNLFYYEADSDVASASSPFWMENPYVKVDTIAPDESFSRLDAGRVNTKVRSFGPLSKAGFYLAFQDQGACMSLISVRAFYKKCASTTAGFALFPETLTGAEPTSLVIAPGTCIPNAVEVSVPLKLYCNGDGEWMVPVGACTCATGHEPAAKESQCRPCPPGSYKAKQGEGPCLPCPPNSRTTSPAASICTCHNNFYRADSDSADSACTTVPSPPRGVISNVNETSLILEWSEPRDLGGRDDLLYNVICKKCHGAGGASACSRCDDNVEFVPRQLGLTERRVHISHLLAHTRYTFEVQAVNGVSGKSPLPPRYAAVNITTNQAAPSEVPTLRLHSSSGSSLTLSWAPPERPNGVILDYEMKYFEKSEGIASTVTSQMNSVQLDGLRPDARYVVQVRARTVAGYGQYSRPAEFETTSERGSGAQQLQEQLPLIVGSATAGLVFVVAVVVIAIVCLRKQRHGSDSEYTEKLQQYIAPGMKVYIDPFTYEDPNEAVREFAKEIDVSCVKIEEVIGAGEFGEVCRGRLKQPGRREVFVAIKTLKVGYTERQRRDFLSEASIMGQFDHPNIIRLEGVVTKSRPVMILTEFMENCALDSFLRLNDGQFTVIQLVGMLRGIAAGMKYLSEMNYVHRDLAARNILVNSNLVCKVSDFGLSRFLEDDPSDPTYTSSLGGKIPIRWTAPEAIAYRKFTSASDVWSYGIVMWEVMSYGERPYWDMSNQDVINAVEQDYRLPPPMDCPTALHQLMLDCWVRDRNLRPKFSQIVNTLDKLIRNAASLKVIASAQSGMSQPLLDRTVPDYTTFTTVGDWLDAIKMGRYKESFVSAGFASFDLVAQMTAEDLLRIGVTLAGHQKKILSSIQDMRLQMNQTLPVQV

[23] = biological target: TTK (human) (UniProt P33981)
TTK (human), sequence (P33981 whole entry, looked up): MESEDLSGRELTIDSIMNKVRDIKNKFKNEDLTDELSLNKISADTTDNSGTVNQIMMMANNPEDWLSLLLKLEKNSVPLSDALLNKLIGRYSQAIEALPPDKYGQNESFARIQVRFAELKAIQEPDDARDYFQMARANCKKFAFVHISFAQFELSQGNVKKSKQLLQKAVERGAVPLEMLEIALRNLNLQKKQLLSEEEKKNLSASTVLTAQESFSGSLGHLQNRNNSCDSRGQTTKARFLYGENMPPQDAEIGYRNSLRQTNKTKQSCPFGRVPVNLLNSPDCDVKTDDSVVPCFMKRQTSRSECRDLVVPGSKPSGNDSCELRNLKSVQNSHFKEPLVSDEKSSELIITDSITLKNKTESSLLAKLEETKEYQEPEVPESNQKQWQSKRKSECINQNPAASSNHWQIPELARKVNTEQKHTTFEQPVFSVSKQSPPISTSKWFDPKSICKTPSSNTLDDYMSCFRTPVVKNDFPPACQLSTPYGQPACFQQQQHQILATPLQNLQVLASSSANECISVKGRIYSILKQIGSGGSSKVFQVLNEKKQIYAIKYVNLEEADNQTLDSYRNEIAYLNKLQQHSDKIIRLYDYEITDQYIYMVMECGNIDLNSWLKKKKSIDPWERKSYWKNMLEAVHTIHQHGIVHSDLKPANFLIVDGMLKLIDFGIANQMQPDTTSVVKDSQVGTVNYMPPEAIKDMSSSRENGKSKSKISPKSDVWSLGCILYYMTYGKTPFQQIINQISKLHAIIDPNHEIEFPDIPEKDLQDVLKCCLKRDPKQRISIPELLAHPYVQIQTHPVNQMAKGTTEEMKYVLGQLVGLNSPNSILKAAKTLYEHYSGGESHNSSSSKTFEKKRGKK

[24] = biological target: GCK (human) (UniProt Q12851)
[25] = biological target: PRKCG (human) (UniProt P05129)
[26] = biological target: MAP2K2 (human) (UniProt P36507)
[27] = biological target: MINK1 (human) (UniProt Q8N4C8)
[28] = biological target: HIPK1 (human) (UniProt Q86Z02)
[29] = biological target: PDPK1 (human) (UniProt O15530)
[30] = biological target: NUAK1 (human) (UniProt O60285)
[31] = biological target: MAP3K7 TAB1 (human) (UniProt Q15750+O43318)
[32] = biological target: INSR (human) (UniProt P06213)
[33] = biological target: STK11 CAB39 STRADA (human) (UniProt Q9Y376+Q7RTN6+Q15831)
STK11 CAB39 STRADA (human), sequence (Q15831 whole entry, looked up): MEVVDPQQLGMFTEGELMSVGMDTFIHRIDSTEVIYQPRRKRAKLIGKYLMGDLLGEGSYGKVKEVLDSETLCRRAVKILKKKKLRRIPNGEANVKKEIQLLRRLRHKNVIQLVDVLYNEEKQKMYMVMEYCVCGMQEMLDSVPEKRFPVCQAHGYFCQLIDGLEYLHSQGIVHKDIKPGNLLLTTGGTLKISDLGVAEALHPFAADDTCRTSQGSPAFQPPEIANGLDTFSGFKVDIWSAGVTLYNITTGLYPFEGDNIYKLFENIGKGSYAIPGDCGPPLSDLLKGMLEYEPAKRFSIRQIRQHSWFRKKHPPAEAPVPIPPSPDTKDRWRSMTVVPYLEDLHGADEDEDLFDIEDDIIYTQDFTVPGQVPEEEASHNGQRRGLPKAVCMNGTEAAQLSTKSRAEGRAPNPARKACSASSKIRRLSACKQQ
STK11 CAB39 STRADA (human), sequence (Q7RTN6 whole entry, looked up): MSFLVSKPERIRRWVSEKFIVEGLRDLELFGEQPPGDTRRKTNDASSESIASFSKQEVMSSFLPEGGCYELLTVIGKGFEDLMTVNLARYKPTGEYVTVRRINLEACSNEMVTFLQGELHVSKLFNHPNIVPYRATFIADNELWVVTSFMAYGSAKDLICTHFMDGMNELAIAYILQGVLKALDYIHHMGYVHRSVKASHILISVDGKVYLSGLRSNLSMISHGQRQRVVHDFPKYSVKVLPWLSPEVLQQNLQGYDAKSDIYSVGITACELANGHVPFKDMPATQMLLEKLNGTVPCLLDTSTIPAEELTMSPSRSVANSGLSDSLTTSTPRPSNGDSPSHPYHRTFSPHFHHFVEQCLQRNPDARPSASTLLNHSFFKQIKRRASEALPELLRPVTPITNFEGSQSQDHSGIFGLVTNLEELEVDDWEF
STK11 CAB39 STRADA (human), sequence (Q9Y376 whole entry, looked up): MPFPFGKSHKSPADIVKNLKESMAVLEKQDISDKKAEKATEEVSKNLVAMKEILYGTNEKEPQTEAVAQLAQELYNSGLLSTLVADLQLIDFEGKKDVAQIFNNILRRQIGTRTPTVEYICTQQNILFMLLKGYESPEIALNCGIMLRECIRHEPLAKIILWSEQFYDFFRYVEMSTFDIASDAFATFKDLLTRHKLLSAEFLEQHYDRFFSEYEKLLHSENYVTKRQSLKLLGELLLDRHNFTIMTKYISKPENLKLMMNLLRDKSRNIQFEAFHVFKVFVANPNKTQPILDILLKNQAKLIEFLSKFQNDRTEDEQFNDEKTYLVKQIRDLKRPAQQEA

[34] = biological target: TAOK1 (human) (UniProt Q7L7X3)

IRAK4 (human), sequence (Q9NWZ3 whole entry, looked up): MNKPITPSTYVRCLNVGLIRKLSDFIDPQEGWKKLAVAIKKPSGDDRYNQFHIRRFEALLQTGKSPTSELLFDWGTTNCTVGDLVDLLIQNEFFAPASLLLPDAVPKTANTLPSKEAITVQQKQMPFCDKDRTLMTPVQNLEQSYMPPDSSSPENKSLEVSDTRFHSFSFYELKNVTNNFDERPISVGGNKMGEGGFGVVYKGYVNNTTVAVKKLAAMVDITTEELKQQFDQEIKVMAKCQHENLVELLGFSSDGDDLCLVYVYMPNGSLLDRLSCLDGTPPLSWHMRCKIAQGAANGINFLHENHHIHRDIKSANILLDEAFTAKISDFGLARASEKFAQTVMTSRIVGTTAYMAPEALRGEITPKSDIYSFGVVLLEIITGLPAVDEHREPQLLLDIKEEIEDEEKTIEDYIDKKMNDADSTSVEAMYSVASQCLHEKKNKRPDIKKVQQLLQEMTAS

Structure (SMILES)	residual activity [1]	residual activity [2]	residual activity [3]	residual activity [4]	residual activity [5]	residual activity [6]	residual activity [7]	residual activity [8]	residual activity [9]	residual activity [10]	residual activity [11]	residual activity [12]	residual activity [13]	residual activity [14]	residual activity [15]	residual activity [16]	residual activity [17]	residual activity [18]	residual activity [19]	residual activity [20]	other results
COc1ccc2c(c1)[nH]c1c(C)nccc12	92%	59%	88%	92%	105%	89%	118%	101%	69%	95%	10%	111%	93%	107%	83%	112%	112%	89%	111%	103%	residual activity [21]: 2%; residual activity [22]: 86%; residual activity [23]: 75%; residual activity [24]: 68%; residual activity [25]: 100%; residual activity [26]: 99%; residual activity [27]: 101%; residual activity [28]: 119%; residual activity [29]: 99% and 115%; residual activity [30]: 96%; residual activity [31]: 95%; residual activity [32]: 100%; residual activity [33]: 94%; residual activity [34]: 111%
Oc1ccc2c(c1)oc1c3ccccc3c(O)cc21	117%	75%	88%	77%	76%	67%	63%	103%	60%	87%	8%	87%	103%	107%	73%	103%	112%	87%	83%	107%	residual activity [22]: 97%; residual activity [23]: 63%; residual activity [24]: 65%; residual activity [25]: 97%; residual activity [26]: 102%; residual activity [27]: 87%; residual activity [28]: 74%; residual activity [30]: 88%; residual activity [31]: 71%; residual activity [32]: 98%; residual activity [33]: 71%; residual activity [34]: 99%
